In patent publication US8987502B2, “Oleanolic acid amidate derivatives, preparation methods and uses thereof” (Hangzhou Bensheng Pharmaceutical Co., Ltd., priority 2011, dated 2015):
Converted amounts (≈) assume the structure as drawn. Values belong to the compound of their own block, whether it stands above or below them.

What was measured:
[1] = test system: K562/adr; assay: MTT leukemia cell proliferation inhibition, K562/adr; assay type: cell-based; conditions: Homo sapiens, 72 h; for inhibition at 16 µg/mL: 16 μg/mL compound, read-out: IR (inhibition rate); for IC50: MTT
From the text: (§1) Leukemia cell lines: leukemia cell lines: K562/adr (drug-resistant, chronic myeloid leukemia, CML), NB4 (acute promyelocytic leukemia, AML), Kasumi-1 (acute myeloid leukemia M2 type, AML-M2), Jurkat (acute lymphoblastic leukemia, ALL), all of which are donated by Cancer Research Institute of Zhejiang University, China; and H9 (acute lymphoblastic leukemia, ALL), which is purchased from China Center for Type Culture Collection (CCTCC).
(§2) Reagents: The standard sample of oleanolic acid (OA) is purchased from Hua Kang Pharmaceutical Raw Material Factory, Shifang City, Sichuan, China; and the amidated oleanolic acid derivatives are prepared according to the present invention.
(§3) Obtaining 6000 well-growing leukemia cells and inoculating them into wells of a 96-well cell culture plate. The culture medium is the 1640 cell culture medium containing 10% fetal bovine serum. After adding the amidated oleanolic acid derivatives of different concentrations and mixing uniformly, placing the plate in a carbon dioxide cell incubator (5% CO2) at 37° C. and incubated for 72 hours. Then the relative number of viable cells is determined by the MTT method. In this experiment, the cell proliferation inhibition rate in control group (not treated with any compound) is set as 0%.

[2] = test system: NB4; assay: MTT leukemia cell proliferation inhibition, NB4; assay type: cell-based; conditions: Homo sapiens, NB-4
From the text: as §1, §2, §3

[3] = test system: Kasumi-1; assay: MTT leukemia cell proliferation inhibition, Kasumi-1; assay type: cell-based; conditions: Homo sapiens
From the text: as §1, §2, §3

[4] = test system: H9; assay: MTT leukemia cell proliferation inhibition, H9; assay type: cell-based, human; conditions: Homo sapiens
From the text: as §1, §2, §3

[5] = test system: Jurkat; assay: MTT leukemia cell proliferation inhibition, Jurkat; assay type: cell-based; conditions: Homo sapiens, 72 h
From the text: as §1, §2, §3

[6] = test system: RPMI8226; assay: MTT multiple myeloma cell proliferation inhibition, RPMI8226; assay type: cell-based; conditions: Homo sapiens, RPMI-8226
Method: Multiple myeloma cell lines: RPMI8226 (multiple myeloma), purchased from Fuxiang Bio-tech Co. Ltd., Shanghai, China.
as §3

[7] = test system: A549; assay: MTT solid tumor cell proliferation inhibition, A549; assay type: cell-based, human; conditions: Homo sapiens; for inhibition at 16 µg/mL: A549, 16 μg/mL compound, 72 h, read-out: IR (inhibition rate); for IC50: A549, 72 h, MTT
Method: (§4) Human solid tumor cell lines: Hep-2 (laryngeal carcinoma), A549 (human lung cancer), CaES-17 (esophageal cancer cell), PC-3 (prostate cancer), CNE (nasopharyngeal carcinoma cell), and SK-OV-3 (ovarian cancer cell), all of which are purchased from China Center For Type Culture Collection; RKO (human colon adenocarcinoma cell), MGC 803 (human gastric cancer cell), MG63 (osteosarcoma) and U87 MG (malignant glioma cell), all of which are purchased from Fuxiang Bio-tech Co. Ltd., Shanghai, China; PANC-1 (pancreatic cancer), Hep G2 (human liver cancer cell), Becap37 (human breast cancer cell), and Hela (human cervical cancer cell), all of which are donated by Cancer Research Institute of Zhejiang University, China.
(§5) Obtaining 4000 well-growing human solid tumor cells and inoculating them into wells of a 96-well cell culture plate. The culture medium is DMEM High Glucose cell culture medium containing 10% fetal bovine serum. The plate is placed in a carbon dioxide cell incubator (5% CO2) at 37° C. for 24 hours for incubation. After being added with the amidated oleanolic acid derivatives of different concentrations and mixed uniformly, the plate is placed in a carbon dioxide cell incubator (5% CO2) at 37° C. for 72 hours for incubation. Then the relative number of the living cells is determined by the MTT method. In this experiment, the cell proliferation inhibition rate in control group (not treated with any compound) is set as 0%.

[8] = test system: PANC-1; assay: MTT solid tumor cell proliferation inhibition, PANC-1; assay type: cell-based, human; conditions: Homo sapiens
Method: as §4, §5

[9] = test system: Becap37; assay: MTT solid tumor cell proliferation inhibition, Becap37; assay type: cell-based; conditions: Homo sapiens
Method: as §4, §5

[10] = test system: MG 63; assay: MTT solid tumor cell proliferation inhibition, MG 63; assay type: cell-based, human
Method: as §4, §5

[11] = test system: Hep G2; assay: MTT solid tumor cell proliferation inhibition, Hep G2; assay type: cell-based; conditions: Homo sapiens, HepG2
Method: as §4, §5

[12] = test system: RKO; assay: MTT solid tumor cell proliferation inhibition, RKO; assay type: cell-based; conditions: Homo sapiens, 72 h
Method: as §4, §5

[13] = test system: U87 MG; assay: MTT solid tumor cell proliferation inhibition, U87 MG; assay type: cell-based, human; conditions: Homo sapiens, U-87 MG, U87 MG, 72 h
Method: as §4, §5

[14] = test system: Hela; assay: MTT solid tumor cell proliferation inhibition, Hela; assay type: cell-based, human; conditions: Homo sapiens, Hela, 72 h
Method: as §4, §5

[15] = test system: CaES-17; assay: MTT solid tumor cell proliferation inhibition, CaES-17; assay type: cell-based, human; conditions: Homo sapiens, CaEs17
Method: as §4, §5

[16] = test system: CNE; assay: MTT solid tumor cell proliferation inhibition, CNE; assay type: cell-based, human; conditions: Homo sapiens, CNE, 72 h
Method: as §4, §5

[17] = test system: Hep-2; assay: MTT solid tumor cell proliferation inhibition, Hep-2; assay type: cell-based, human; conditions: Homo sapiens
Method: as §4, §5

[18] = test system: MGC803; assay: MTT solid tumor cell proliferation inhibition, MGC803; assay type: cell-based, human; conditions: Homo sapiens, MGC-803
Method: as §4, §5

[19] = test system: PC-3; assay: MTT solid tumor cell proliferation inhibition, PC-3; assay type: cell-based, human; conditions: Homo sapiens
Method: as §4, §5

[20] = test system: SK-OV-3; assay: MTT solid tumor cell proliferation inhibition, SK-OV-3; assay type: cell-based, human; conditions: Homo sapiens
Method: as §4, §5

[21] = 16 μg/mL compound, read-out: IR (inhibition rate)

IC50 [1]: 5.7 µg/mL (≈ 10.1 µM) | IC50 ([2]; NB4, 72 h, MTT): 16 µg/mL (≈ 28.5 µM) | IC50 ([3]; Kasumi-1, 72 h, MTT): > 16 µg/mL | IC50 ([4]; H9, 72 h, MTT): > 16 µg/mL | IC50 ([5]; MTT): > 16 µg/mL | IC50 ([6]; RPMI8226, 72 h, MTT): 9.63 µg/mL (≈ 17.1 µM) | IC50 [7]: > 16 µg/mL | IC50 ([8]; PANC-1, 72 h, MTT): > 16 µg/mL | IC50 ([9]; Becap37, 72 h, MTT): > 16 µg/mL | IC50 ([10]; Homo sapiens, MG 63, 72 h, MTT): > 16 µg/mL | IC50 ([11]; Hep G2, 72 h, MTT): > 16 µg/mL | IC50 ([12]; MTT): > 16 µg/mL | IC50 ([13]; MTT): > 16 µg/mL | IC50 ([14]; MTT): > 16 µg/mL | IC50 ([15]; CaES-17, 72 h, MTT): > 16 µg/mL | IC50 ([16]; MTT): > 16 µg/mL | IC50 ([17]; Hep-2, 72 h, MTT): > 16 µg/mL | IC50 ([18]; MGC803, 72 h, MTT): > 16 µg/mL | IC50 ([19]; PC-3, 72 h, MTT): > 16 µg/mL | IC50 ([20]; SK-OV-3, 72 h, MTT): > 16 µg/mL
SMILES: COc1cccc(C(=O)N[C@]23CCC(C)(C)C[C@H]2C2=CC[C@@H]4[C@@]5(C)CC[C@H](O)C(C)(C)[C@@H]5CC[C@@]4(C)[C@]2(C)CC3)c1 [BS-OA-103]
inhibition at 16 µg/mL [1]: 87.3% | inhibition at 16 µg/mL ([2]; NB4, 16 μg/mL compound, 72 h, read-out: IR (inhibition rate)): 48.5% | inhibition at 16 µg/mL ([3]; Kasumi-1, 16 μg/mL compound, 72 h, read-out: IR (inhibition rate)): 19.9% | inhibition at 16 µg/mL ([4]; H9, 16 μg/mL compound, 72 h, read-out: IR (inhibition rate)): 34.1% | inhibition at 16 µg/mL [5, 21]: -2.5% | inhibition at 16 µg/mL ([6]; RPMI8226, 16 μg/mL compound, 72 h, read-out: IR (inhibition rate)): 90.2% | inhibition at 16 µg/mL [7]: 29.8% | inhibition at 16 µg/mL ([8]; PANC-1, 16 μg/mL compound, 72 h, read-out: IR (inhibition rate)): 33.7% | inhibition at 16 µg/mL ([9]; Becap37, 16 μg/mL compound, 72 h, read-out: IR (inhibition rate)): 4.6% | IR (inhibition rate) ([10]; MG 63, 16 μg/mL compound, 72 h): −25.4% | inhibition at 16 µg/mL ([11]; Hep G2, 16 μg/mL compound, 72 h, read-out: IR (inhibition rate)): 8% | inhibition at 16 µg/mL [12, 21]: -11.7% | inhibition at 16 µg/mL [13, 21]: 3.7% | inhibition at 16 µg/mL [14, 21]: 38.4% | inhibition at 16 µg/mL ([15]; CaES-17, 16 μg/mL compound, 72 h, read-out: IR (inhibition rate)): -5.9% | inhibition at 16 µg/mL [16, 21]: 26% | inhibition at 16 µg/mL ([17]; Hep-2, 16 μg/mL compound, 72 h, read-out: IR (inhibition rate)): 10.6% | inhibition at 16 µg/mL ([18]; MGC803, 16 μg/mL compound, 72 h, read-out: IR (inhibition rate)): 7% | inhibition at 16 µg/mL ([19]; PC-3, 16 μg/mL compound, 72 h, read-out: IR (inhibition rate)): 24.5% | inhibition at 16 µg/mL ([20]; SK-OV-3, 16 μg/mL compound, 72 h, read-out: IR (inhibition rate)): 17.2%

IC50 [1]: > 16 µg/mL | IC50 [7]: > 16 µg/mL
SMILES: Cc1ccc(C(=O)N[C@]23CCC(C)(C)C[C@H]2C2=CC[C@@H]4[C@@]5(C)CC[C@H](O)C(C)(C)[C@@H]5CC[C@@]4(C)[C@]2(C)CC3)cc1 [BS-OA-102]
inhibition at 16 µg/mL [1]: 57% | inhibition at 16 µg/mL [7]: 13.7%
